Data published in PMC9571093, “Synthesis and Characterization of Novel Hydrazone Derivatives of Isonicotinic Hydrazide and Their Evaluation for Antibacterial and Cytotoxic Potential” (Molecules, 2022).
≈ marks a conversion by molar mass, not a printed value.

Experiments:
[1] = test system: Bacillus subtilis ATCC 11774; assay: Paper disc diffusion, zone of inhibition; format: cell-based; conditions: disc with 1000 µg mL−1 in DMSO, 37 °C; for zone of inhibition at 1000 µg/mL: Bacillus subtilis, ATCC11774, 24 h
Protocol: (§1) All the synthesized compounds were screened for antibacterial activities using minimum inhibitory concentrations (MIC) and zone of inhibitions against Gram (+)and Gram (−) bacterial strains. ATCC strains of the test microorganism selected for antibacterial assay were Gram-positive bacteria; Staphylococcus aureus ATCC 25923, Bacillus subtilus ATCC 11774, and Gram-negative bacteria; Escherichia coli ATCC 10536. The bacterial strains’ stock cultures were kept in Nutrient agar (Oxoid, UK) at 4 °C and inocula were prepared by transferring several single colonies of microbes to a sterile Mueller Hinton broth. The bacterial cell suspension was mixed until homogeneity to give a final density of 5 × 10^5 cfu/mL
(§2) Preliminary screenings of synthesized compounds were conducted on agar plates using the disc diffusion method. The plates were prepared using Mueller–Hinton agar following the autoclave process (121 °C for 30 min). After cooling, the plates were inoculated with the suspension of microorganisms (S. aureus, B. subtilis and E. coli). The paper discs impregnated with the test compounds (1000 µg mL^−1 in dimethyl sulfoxide) were placed on the solidified medium and incubated at 37 °C for 24 hours before recording the zone of inhibition in millimeters.

[2] = test system: Escherichia coli ATCC 10536; assay: Paper disc diffusion, zone of inhibition; format: cell-based; conditions: ATCC10536, disc with 1000 µg mL−1 in DMSO, 37 °C, 24 h
Protocol: as §1, §2

[3] = test system: Staphylococcus aureus ATCC 25923; assay: Paper disc diffusion, zone of inhibition; format: cell-based; conditions: disc with 1000 µg mL−1 in DMSO, 37 °C; for zone of inhibition at 1000 µg/mL: Staphylococcus aureus, ATCC25923, 24 h
Protocol: as §1, §2

E. coli ATCC 10536 = assay: Tetrazolium (MTT) microplate assay of minimum inhibitory concentration; format: cell-based; conditions: Escherichia coli, ATCC10536
Protocol: as §1
(§3) The minimum inhibitory concentrations of test microorganisms and reference material were determined using the tetrazolium microplate assay method. The assay was performed using a 96-well clear microtiter plate. Freshly harvested bacterial cell and fungal cell suspensions were seeded at 5 × 10^5 cfu/mL in each well of the 96-well plate. Different concentrations, 500 to 10 µg/mL, of the test compounds were diluted in series with Muller–Hinton broth. A volume of 200 µL of each concentration was added in triplicate to the wells and the plates were then incubated for 18–24 h at 37 °C ± 0.5. After incubation, in each well, 50 µL of 3-(4, 5-dimethylthiazol-2-yl)-2, 5-diphenyltetrazolium bromide MTT, having a concentration of 0.2 mg/mL, was added and the plate was incubated at 37 °C for 30 min. An appropriate solvent blank (DMSO) was included as the negative control and the bacterial suspension was included as the positive control. The absorbance was measured at 570 nm with a reference wavelength of 650 nm by adding DMSO using a spectrophotometer and the percentage reduction of the dye (indicating the bacterial growth inhibition) was calculated.

S. aureus ATCC 25923 = assay: as above; format: cell-based; conditions: Staphylococcus aureus, ATCC25923
Protocol: as §1, §3

B. subtilis ATCC 11774 = assay: as above; format: cell-based; conditions: Bacillus subtilis, ATCC11774
Protocol: as §1, §3

[4] = Brine shrimp lethality bioassay; format: in vivo, Artemia salina; conditions: Artemia salina (brine shrimp) nauplii, in vivo, other: exposure in sea water containing the compound, 24 h incubation, regression analysis, read-out: LC50 (median lethal concentration)
Protocol: (§4) The cytotoxicities of synthesized hydrazones were recorded by employing an in vitro brine shrimp lethality bioassay technique. The eggs of Artemia salina (brine shrimp) were allowed to incubate at 30 °C for 48 h under a light and dark cycle using artificial sea water before subjecting them to the sample solutions. The hatched larvae (nauplii) were collected with using a Pasteur pipette and were transferred to freshly prepared sea water (commercial salt and double-distilled water). The stock solutions of each compound were prepared at 500 µg/mL concentration in DMSO and sea water at 1:1, and further serial dilutions of 25, 50, 100, 200 and 300 µg/mL were prepared using sea water. Using a 2mL volume from each dilution, sea water containing 10 nauplii was added to a test tube and incubated for 24 h. A solvent mixture with nauplii containing no test compound was used as the control. After due time, the number of nauplii that survived was determined using a magnifying glass. The experiment was performed in triplicate and the median lethal concentration (LC50) ± SEM was calculated using regression analysis.

[5] = test system: Artemia salina (brine shrimp) nauplii; assay: Brine shrimp lethality bioassay; format: in vivo; conditions: 24 h, concentration not given
Protocol: as §4

| Structure (SMILES) | zone of inhibition at 1000 µg/mL [1] | zone of inhibition at 1000 µg/mL [2] | zone of inhibition at 1000 µg/mL [3] | inhibition at 25 µg/mL (E. coli ATCC 10536) | inhibition at 50 µg/mL (E. coli ATCC 10536) | inhibition at 100 µg/mL (E. coli ATCC 10536) | inhibition at 200 µg/mL (E. coli ATCC 10536) | inhibition at 25 µg/mL (S. aureus ATCC 25923) | inhibition at 50 µg/mL (S. aureus ATCC 25923) | inhibition at 100 µg/mL (S. aureus ATCC 25923) | inhibition at 200 µg/mL (S. aureus ATCC 25923) | inhibition at 25 µg/mL (B. subtilis ATCC 11774) | inhibition at 50 µg/mL (B. subtilis ATCC 11774) | inhibition at 100 µg/mL (B. subtilis ATCC 11774) | inhibition at 200 µg/mL (B. subtilis ATCC 11774) | inhibition at 300 µg/mL (S. aureus ATCC 25923) | inhibition at 400 µg/mL (S. aureus ATCC 25923) | inhibition at 300 µg/mL (B. subtilis ATCC 11774) | inhibition at 400 µg/mL (B. subtilis ATCC 11774) | inhibition at 300 µg/mL (E. coli ATCC 10536) | other results |
| --- | --- | --- | --- | --- | --- | --- | --- | --- | --- | --- | --- | --- | --- | --- | --- | --- | --- | --- | --- | --- | --- |
| NCC[C@H](O)C(=O)N[C@@H]1C[C@H](N)[C@@H](O[C@H]2O[C@H](CN)[C@@H](O)[C@H](O)[C@H]2O)[C@H](O)[C@H]1O[C@H]1O[C@H](CO)[C@@H](O)[C@H](N)[C@H]1O [Amikacin, reference compound] | 30 mm | 38 mm | 24 mm |  |  |  |  |  |  |  |  |  |  |  |  |  |  |  |  |  |  |
| CC1(C)S[C@@H]2[C@H](NC(=O)[C@H](N)c3ccc(O)cc3)C(=O)N2[C@H]1C(=O)O [Amoxicillin, reference compound] |  |  |  | 40 ± 0.5% | 66 ± 0.5% | 85 ± 0.6% | 96 ± 1% |  |  |  |  |  |  |  |  |  |  |  |  |  | IC50 (E. coli ATCC 10536; E. coli, concentration inhibiting 66 ± 0.5%): 50 mg/L (≈ 137 µM) |
| CO/N=C(\C(=O)N[C@@H]1C(=O)N2C(C(=O)O)=C(CSc3nc(=O)c(=O)[nH]n3C)CS[C@H]12)c1csc(N)n1 [Ceftriaxone, reference compound] |  |  |  |  |  |  |  | 30 ± 0.8% | 55 ± 0.3% | 80 ± 1.2% | 96 ± 1% | 40 ± 0.5% | 55 ± 0.7% | 79 ± 1.2% | 92 ± 1.2% |  |  |  |  |  | minimum inhibitory concentration (S. aureus ATCC 25923; S. aureus, concentration inhibiting 55 ± 0.3%, read-out: IC50): 50 mg/L (≈ 90.2 µM); IC50 (B. subtilis ATCC 11774; B. subtilis, concentration inhibiting 55 ± 0.7%): 50 mg/L (≈ 90.2 µM) |
| COc1cc(/C=N/NC(=O)c2ccncc2)ccc1OCC(=O)OC(C)(C)C [NH1, Tert-butyl (E)-2-(4-((2-Isonicotinoylhydrazineylidene)methyl)-2-methoxyphenoxy) Acetate] | 14 mm | 25 mm | 24 mm | 9 ± 0.5% | 18 ± 0.5% | 40 ± 0.4% | 60 ± 0.5% |  | 10 ± 0.6% | 25 ± 0.7% | 55 ± 1% |  | 5 ± 0.3% | 26 ± 0.3% | 44 ± 0.4% | 63 ± 1% | 69 ± 2% | 60 ± 0.5% | 75 ± 0.5% | 79 ± 1% | Zone of Inhibition ([3]; 24 h): 20 mm; inhibition at 500 µg/mL (S. aureus ATCC 25923; 500 µg/mL): 80 ± 1.5% |
| CC(C)(C)OC(=O)COc1ccc(/C=N/NC(=O)c2ccncc2)cc1 [NH2, Tert-butyl (E)-2-(4-((2-Isonicotinoylhydrazineylidene)methyl)phenoxy) Acetate] | 14 mm | 14 mm | 15 mm |  |  | 10 ± 0.3% | 25 ± 0.3% | 11 ± 1% | 21 ± 1.2% | 42 ± 2% | 50 ± 2% | 4 ± 0.2% | 12 ± 0.3% | 22 ± 0.3% | 44 ± 0.5% | 63 ± 1.5% | 74 ± 2% | 60 ± 0.5% | 81 ± 0.6% | 55 ± 0.5% | inhibition at 400 µg/mL (E. coli ATCC 10536; 400 µg/mL): 70 ± 0.3% |
| COc1cc(/C=N/NC(=O)c2ccncc2)ccc1OCC=C(C)C [NH3, (E)-N′-(3-Methoxy-4-((3-methylbut-2-en-1-yl)oxy)benzylidene)isonicotinohydrazide] | 23 mm | 33 mm | 24 mm |  | 36 ± 0.5% | 50 ± 0.5% | 65 ± 0.2% | 24 ± 0.7% | 35 ± 1.2% | 44 ± 2% | 60 ± 1.5% | 12 ± 0.4% | 20 ± 0.7% | 28 ± 0.8% | 53 ± 0.7% | 78 ± 1% | 89 ± 1.5% | 74 ± 0.9% | 84 ± 0.9% | 85 ± 1.2% | LC50 at 24 h [4]: 240 mg/L (≈ 707 µM); Zone of Inhibition ([1]; 24 h): 22 mm |
| CC(C)=CCOc1ccc(/C=N/NC(=O)c2ccncc2)cc1 [NH4, (E)-N′-(4-((3-Methylbut-2-en-1-yl)oxy)benzylidene)isonicotinohydrazide] | 23 mm | 21 mm | 20 mm |  | 5 ± 0.5% | 25 ± 0.5% | 54 ± 0.4% | 16 ± 0.5% | 24 ± 1% | 38 ± 1.5% | 55 ± 0.9% | 10 ± 0.7% | 18 ± 0.6% | 29 ± 0.8% | 50 ± 1.1% | 71 ± 2% | 89 ± 1.5% | 68 ± 1% | 77 ± 0.8% | 75 ± 0.8% |  |
| CCCOc1ccc(/C=N/NC(=O)c2ccncc2)cc1OC [NH5, (E)-N′-(3-Methoxy-4-propoxybenzylidene) isonicotinohydrazide] | 25 mm | 24 mm | 22 mm | 10 ± 0.6% | 18 ± 0.6% | 34 ± 0.3% | 58 ± 0.6% | 5 ± 0.4% | 12 ± 0.4% | 35 ± 0.7% | 58 ± 1.1% |  | 10 ± 0.5% | 26 ± 0.5% | 53 ± 0.6% | 77 ± 1.5% |  | 73 ± 0.8% |  | 79 ± 0.8% | minimum survival percentage [5]: 36.10 ± 3.45% |
| CCCOc1ccc(/C=N/NC(=O)c2ccncc2)cc1 [NH6, (E)-N′-(4-Propoxybenzylidene) Isonicotinohydrazide] | 23 mm | 22 mm | 17 mm | 5 ± 0.2% | 14 ± 0.5% | 28 ± 0.5% | 50 ± 0.7% |  | 5.5 ± 0.5% | 25 ± 0.5% | 52 ± 1.6% |  | 10 ± 0.6% | 23 ± 0.7% | 52 ± 0.8% | 72 ± 1.2% | 80 ± 1% | 70 ± 1.1% |  | 73 ± 0.7% | minimum survival percentage [5]: 32.44 ± 2.0%; LC50 at 24 h [4]: 162 mg/L (≈ 574 µM) |
